The text below walks through data of publication PMC8288134, “Synthesis, potential antitumor activity, cell cycle analysis, and multitarget mechanisms of novel hydrazones incorporating a 4-methylsulfonylbenzene scaffold: a molecular docking study” (Journal of Enzyme Inhibition and Medicinal Chemistry, 2021).

Where only a bound is given, the exact number is not on record here.

The subject of one test is UO-31. More on the design: method as in https://dtp.cancer.gov/dtpstandard/dwindex/index.jsp. Conditions: reference drugs, ref https://dtp.cancer.gov/dtpstandard/dwindex/index.jsp; cited from earlier work.
The next test deals with OVCAR-5. More on the design: method as in https://dtp.cancer.gov/dtpstandard/dwindex/index.jsp. Conditions: reference drugs, ref https://dtp.cancer.gov/dtpstandard/dwindex/index.jsp; cited from earlier work.
The subject of another test is MCF7. More on the design: method as in https://dtp.cancer.gov/dtpstandard/dwindex/index.jsp. Conditions: reference drugs, ref https://dtp.cancer.gov/dtpstandard/dwindex/index.jsp; cited from earlier work.
The next test deals with U251. More on the design: method as in https://dtp.cancer.gov/dtpstandard/dwindex/index.jsp. To be noted: reference drugs, ref https://dtp.cancer.gov/dtpstandard/dwindex/index.jsp; cited from earlier work.
A further test has as its system BT-549. Kind of test: NCI antitumor screen (SRB). Type of test: cell-based. To be noted: Homo sapiens; for inhibition at 10 µM: one dose 10 µM, read-out: Growth inhibition percentage (GI%).
The test system of another test is 786-0. In words: NCI antitumor screen (SRB). In kind it is cell-based. To be noted: Homo sapiens; for inhibition at 10 µM: one dose 10 µM, read-out: Growth inhibition percentage (GI%).
The subject of another test is UACC-62. Kind of test: NCI antitumor screen (SRB). In kind it is cell-based. Conditions: Homo sapiens; for inhibition at 10 µM: one dose 10 µM, read-out: Growth inhibition percentage (GI%).
The subject of another test is HOP-92. In words: NCI antitumor screen (SRB). Conditions: Homo sapiens, five concentrations 0.01-100 µM. Type of test: cell-based.
The test system of test [1] is CNS cancer tumour cell lines. Kind of test: NCI antitumor screen, subpanel. Type of test: cell-based.
Test [2] concerns melanoma tumour cell lines. In words: NCI antitumor screen, subpanel. In kind it is cell-based.
The test system of test [3] is NSC lung cancer tumour cell lines. Kind of test: NCI antitumor screen, subpanel. In kind it is cell-based.
Test [4] relates to renal cancer tumour cell lines. In words: NCI antitumor screen, subpanel. Type of test: cell-based.
The test system of test [5] is prostate cancer tumour cell lines. In words: NCI antitumor screen, subpanel. In kind it is cell-based.
The subject of test [6] is breast cancer tumour cell lines. In words: NCI antitumor screen, subpanel. In kind it is cell-based.
The test system of test [7] is leukaemia tumour cell lines. In words: NCI antitumor screen, subpanel. Type of test: cell-based.
Test [8] relates to colon cancer tumour cell lines. In words: NCI antitumor screen, subpanel. Type of test: cell-based.
In test [9] the test system is ovarian cancer tumour cell lines. Kind of test: NCI antitumor screen, subpanel. In kind it is cell-based.
A further test deals with HCT-116. More on the design: method as in https://dtp.cancer.gov/dtpstandard/dwindex/index.jsp. Conditions: reference drugs, ref https://dtp.cancer.gov/dtpstandard/dwindex/index.jsp; cited from earlier work.
[10] abbreviates: five concentrations 0.01-100 µM.
Where [11] appears, read: Homo sapiens, five concentrations.
The mark [12] stands for this setting: Homo sapiens, read-out: LC50 (subpanel average).

Turning to `Cc1ccc(-c2cc(C(F)(F)F)nn2-c2ccc(S(N)(=O)=O)cc2)cc1` [Celecoxib, celecoxib], the GI50 in the test with UO-31 is 15.8 µM; in the test on OVCAR-5, 19.9 µM; in the test on MCF7 it was 15.8 µM; with U251, 15.8 µM.
As to `O=c1[nH]cc(F)c(=O)[nH]1` [Compound 5-Fu, 5-fluorouracil, reference compound], the figures for the inhibition at 10 µM with BT-549, in the test with 786-0 and in the test with UACC-62 were 62.2%, 51.3% and 60.3%, respectively.
The corresponding values for `CS(=O)(=O)c1ccc(C(=O)NN=Cc2cccc3ccccc23)cc1` [Compound 6, 4-(Methylsulfonyl)-N'-(naphthalen-1-ylmethylene)benzohydrazide] are 12.4%, < 10% and 38.4%.
On the same counts, the results for `Cc1ccc(C=NNC(=O)c2ccc(S(C)(=O)=O)cc2)cc1` [Compound 9, N'-(4-Methylbenzylidene)-4-(methylsulfonyl)benzohydrazide] are < 10%, < 10% and 19.1%.
On the same counts, the results for `CS(=O)(=O)c1ccc(C(=O)N/N=C/c2ccccc2O)cc1` [Compound 16] are 47%, 67% and 83.6%.
As to `CCN(CC)c1ccc(/C=N/NC(=O)c2ccc(S(C)(=O)=O)cc2)c(O)c1` [Compound 20], the GI50 with HOP-92 amounted to 0.491 µM; with BT-549 (setting [10]), 0.346 µM; in test [1] (setting [11]), 0.22 µM; with 786-0 (setting [10]), 0.182 µM; in [2] (setting [11]), 0.31 µM; with UACC-62 (setting [10]), 0.234 µM. The GI50 turned out to be 0.26 µM in test [3] (setting [11]); 1.4 µM in test [4] (setting [11]); 0.23 µM in test [5] (setting [11]); 2.2 µM in [6] (setting [11]); 0.23 µM in test [7] (setting [11]); 0.27 µM in test [8] (setting [11]). For the same compound, in test [9] (setting [11]), halving of growth (GI50) required 1.1 µM. Also, the inhibition at 10 µM was 69.3% in the test with BT-549, 84.6% in the test on 786-0 and > 100% in the test with UACC-62. In addition, the “TGI (subpanel average)” value is listed as 71.7 µM in [1]; 45.6 µM in test [2]; 65.0 µM in test [3]; 80.3 µM in test [4]; “c (Compounds showed values ≥ 100 µM)” in test [5]; 69.5 µM in [6]. Also, the “TGI (subpanel average)” value in test [7] is given as 83.5 µM; in test [8] it was “c (Compounds showed values ≥ 100 µM)”; in [9], 70.0 µM. In addition, the CC50 in test [1] (setting [12]), in test [2] (setting [12]), in test [3] (setting [12]), in [4] (setting [12]), in test [5] (setting [12]) and in [6] (setting [12]) was > 100 µM each time. In addition, the CC50 in test [7] (setting [12]), in test [8] (setting [12]) and in test [9] (setting [12]) was > 100 µM each time.
With `C#Cc1cccc(Nc2ncnc3cc(OCCOC)c(OCCOC)cc23)c1` [Erlotinib, erlotinib], the GI50 was 1 µM in the test with UO-31; 7.94 µM with OVCAR-5; 100 µM in the test with MCF7; 25.1 µM with U251; 6.31 µM in the test on HCT-116.
Turning to `COc1cc2ncnc(Nc3ccc(F)c(Cl)c3)c2cc1OCCCN1CCOCC1` [Gefitinib, gefitinib], the GI50 with UO-31 was 1.58 µM; in the test with OVCAR-5, 3.98 µM; in the test with U251 it was 3.16 µM; with HCT-116, 3.16 µM.
Turning to `CNC(=O)c1cc(Oc2ccc(NC(=O)Nc3ccc(Cl)c(C(F)(F)F)c3)cc2)ccn1` [Sorafenib, sorafenib], the GI50 in the test on UO-31 is 2.51 µM; with OVCAR-5, 3.16 µM; with MCF7 it was 2.51 µM; with U251 it was 1.99 µM.
Turning to `CS(=O)(=O)c1ccc(C(=O)Nc2ccc(Cl)c(-c3ccccn3)c2)c(Cl)c1` [Vismodegib, vismodegib], the GI50 with UO-31 was 31.6 µM; in the test with OVCAR-5, 100 µM; in the test on MCF7, 31.6 µM; with U251 it was 50.1 µM; with HCT-116, 50.1 µM.

In general, GI50 refers to the concentration that inhibits growth by half. Usually inhibition stands for the percentage by which the read-out fell short of the control.
